One series deals with male C57BL/6J mice. Description: Mouse oral glucose tolerance test. The format is in vivo. Particulars: for Glucose Lowering: at the minimally efficacious dose, plasma glucose AUC in oGTT; for Minimally efficacious Dose: oGTT in C57BL/6J mice. Here is the method:
Mouse Oral Glucose Tolerance Test
Twenty four (24) male C57BL/6J mice (8-10 weeks old, average weight 28 g) were randomized into 4 groups (1 mouse/cage) of 6 mice per group based on fed plasma glucose and body weight. Prior to initiating the study, mice were fasted overnight and the next morning they were weighed and placed in the experimental lab. After 30 min in the environment, the mice were bled via tail tip at −60 min and immediately given their first oral administration of vehicle (40% PEG400, 10% Cremophor EL, 50% water) or compound solutions (5 ml/kg). At time 0 the mice were bled and given 50% glucose (2 g/kg) to initiate the oral glucose tolerance test (oGTT). The mice were bled 30, 60 and 120 min after the glucose load. Blood samples were drawn into potassium EDTA, placed on ice during the study and subsequently centrifuged for 10 min at 3000 rpm at 4° C. Plasma samples were diluted 11-fold for glucose analysis in the COBAS MIRA® System (Roche Diagnostics). Area under the curve was calculated from the plasma glucose time course data using the trapezoid rule with fasting plasma glucose as the baseline (GraphPad Prism Software). The statistical significance of the changes in the glucose AUCs resulting from the different treatments was determined by one-way ANOVA followed by Dunnett's test using the vehicle group as the control (JMP software, release 5.1.2).
Find below in Table 7 data for compared compounds (See WO 2009/012275 A1).

The nature of the next series: Aqueous solubility assay. The format is physicochemical. As to conditions: aqueous buffer, thermodynamic from solid; pH 6.5 phosphate buffer, room temperature, 18-24 h. Here is the method: Approximately 0.75 mg of accurately weighed test compound was added to 1 mL of a pH 6.5 phosphate buffer (50 mM Potassium Phosphate Buffer) to make solutions with a nominal targeted concentration of 1 mM. The vial was then rotated on an orbital shaker at room temperature for 18-24 h. After equilibration time had been met, the test solution was centrifuge filtered through a 0.45 um membrane (Millipore Ultrafree Centrifugal Filters, Durapore PVDF 0.45 um). The filtrate was then analyzed by an Agilent HP1100 HPLC/UV at multiple wavelengths using diode array detection (e.g. 210, 230, 254 and 280 nm) against a previously generated calibration curve to determine compound concentration.
Find below in Table 9 data for compared compounds (See WO 2011/127106 A1).

The next series deals with hERG (Homo sapiens (Human), UniProt Q12809). Description: Patch clamp electrophysiology assay, hERG. The format is cell-based. Particulars: HEK293 cells stably expressing hERG, pH 7.4. Here is the method:
(§1) Compound Electrophysiology Assays
(§2) Recombinant ion channels (hERG, sodium [SCN5A], and L-type calcium [Cav1.2]) stably expressed in human embryonic kidney cells (HEK293) are used as test systems, and each system is tested using 2-3 replicates in the conventional patch clamp assay.
(§3) Ion channel membrane current recordings are made with a Multiclamp 700 series integrating patch-clamp amplifier (Axon Instruments, Foster City, Calif.) using the whole-cell variant of the patch-clamp technique.
Cells expressing hERG, sodium [SCN5A], or L-type calcium [Cav1.2] channels are placed in a plexiglass bath chamber, mounted on the stage of an inverted microscope, and perfused continuously with bath solution. […]
Initially, a current-voltage relationship is generated in the control bath solution using the following voltage protocol. hERG currents are elicited by 2 second step depolarizations applied from a holding potential of −80 mV to test potentials ranging from −70 mV to +60 mV. […] The peak tail current is monitored until a new steady-state in the presence of test article was achieved. This is followed by the application of the next higher concentration of test article to be tested, and is repeated until all concentrations of test article have been evaluated. Effects of test article on hERG channel are calculated by measuring inhibition of peak tail currents. […]

A further series deals with sodium channel SCN5A (Homo sapiens (Human), UniProt Q14524). As to the kind of experiment: Patch clamp electrophysiology assay, sodium channel. The format is cell-based. As to conditions: pH 7.4, 10 μM, HEK293, read-out: Na % Inhibition. How it is done: as §1, §2, §3
Cells expressing hERG, sodium [SCN5A], or L-type calcium [Cav1.2] channels are placed in a plexiglass bath chamber, mounted on the stage of an inverted microscope, and perfused continuously with bath solution.
The sodium current bath solution contains (in mM): 70 NaCl, 70 NMDG, 4 KCl, 1.8 CaCl2, 1 MgCl2, 10 glucose, 10 HEPES (pH 7.4, NaOH). The patch pipette filling solution used in sodium experiments contains (in mM): 130 KCl, 1 MgCl2, 1 CaCl2, 5 ATP-K2, 10 EGTA, 10 HEPES (pH 7.2, KOH).
For determining steady state inhibition, sodium currents are elicited every 5 seconds (0.2 Hz) using the following voltage protocol. Cells are held at a potential of −90 mV and stepped to −20 mV for 45 ms. The peak sodium current in response to the depolarizing step to −20 mV is monitored in the control buffer and after application of test article until a new steady state in the presence of the test article is achieved. To assess the rate dependent inhibition of the sodium currents, trains of voltage steps at frequencies of 1 and 4 Hz (30 sweeps each) are applied to the cell prior to application of test article (control) and after steady state inhibition by test article, as determined at 0.2 Hz frequency. The voltage waveform used in the rate dependence experiments is the same as the waveform used for evaluating steady state inhibition at 0.2 Hz stimulation frequency. Rate dependent inhibition is calculated by comparing the 30th voltage sweep in presence of test article to the 30th voltage sweep under control conditions at each frequency tested.
Compounds are tested in 3 cells at each concentration in each ion channel assay. Currents are sampled at rates at least 2 times the low pass filter rate. The flow rate is kept constant throughout the experiments. All currents were recorded at room temperature ˜25° C. IC50 values are calculated using the sigmoidal concentration-response equation Y=A+((B−A)/(1+((C/X)^D))) in XLfit where A and B are the minimum and maximum % inhibition, C is the IC50 and D is the slope factor.
Find below in Table 11 data for compared compounds (See WO 2011/127106 A1).
For orientation: The patch-clamp technique gives a direct electrical read-out from membranes.

Two compounds from patent US9174965B2, “Pyrimidinylpiperidinyloxypyridone analogues as GPR119 modulators” (BRISTOL-MYERS SQUIBB COMPANY, priority 2012, dated 2015) can be followed below.

In brackets after ≈: the same amount, converted by molar mass. Like-named read-outs stand apart in the source and are kept apart here.

As usually defined, the solubility is how much of the substance goes into solution per volume. By inhibition is commonly meant the percentage by which the read-out fell short of the control.

sodium channel SCN5A, sequence (Q14524 whole entry, the tested form may be a part): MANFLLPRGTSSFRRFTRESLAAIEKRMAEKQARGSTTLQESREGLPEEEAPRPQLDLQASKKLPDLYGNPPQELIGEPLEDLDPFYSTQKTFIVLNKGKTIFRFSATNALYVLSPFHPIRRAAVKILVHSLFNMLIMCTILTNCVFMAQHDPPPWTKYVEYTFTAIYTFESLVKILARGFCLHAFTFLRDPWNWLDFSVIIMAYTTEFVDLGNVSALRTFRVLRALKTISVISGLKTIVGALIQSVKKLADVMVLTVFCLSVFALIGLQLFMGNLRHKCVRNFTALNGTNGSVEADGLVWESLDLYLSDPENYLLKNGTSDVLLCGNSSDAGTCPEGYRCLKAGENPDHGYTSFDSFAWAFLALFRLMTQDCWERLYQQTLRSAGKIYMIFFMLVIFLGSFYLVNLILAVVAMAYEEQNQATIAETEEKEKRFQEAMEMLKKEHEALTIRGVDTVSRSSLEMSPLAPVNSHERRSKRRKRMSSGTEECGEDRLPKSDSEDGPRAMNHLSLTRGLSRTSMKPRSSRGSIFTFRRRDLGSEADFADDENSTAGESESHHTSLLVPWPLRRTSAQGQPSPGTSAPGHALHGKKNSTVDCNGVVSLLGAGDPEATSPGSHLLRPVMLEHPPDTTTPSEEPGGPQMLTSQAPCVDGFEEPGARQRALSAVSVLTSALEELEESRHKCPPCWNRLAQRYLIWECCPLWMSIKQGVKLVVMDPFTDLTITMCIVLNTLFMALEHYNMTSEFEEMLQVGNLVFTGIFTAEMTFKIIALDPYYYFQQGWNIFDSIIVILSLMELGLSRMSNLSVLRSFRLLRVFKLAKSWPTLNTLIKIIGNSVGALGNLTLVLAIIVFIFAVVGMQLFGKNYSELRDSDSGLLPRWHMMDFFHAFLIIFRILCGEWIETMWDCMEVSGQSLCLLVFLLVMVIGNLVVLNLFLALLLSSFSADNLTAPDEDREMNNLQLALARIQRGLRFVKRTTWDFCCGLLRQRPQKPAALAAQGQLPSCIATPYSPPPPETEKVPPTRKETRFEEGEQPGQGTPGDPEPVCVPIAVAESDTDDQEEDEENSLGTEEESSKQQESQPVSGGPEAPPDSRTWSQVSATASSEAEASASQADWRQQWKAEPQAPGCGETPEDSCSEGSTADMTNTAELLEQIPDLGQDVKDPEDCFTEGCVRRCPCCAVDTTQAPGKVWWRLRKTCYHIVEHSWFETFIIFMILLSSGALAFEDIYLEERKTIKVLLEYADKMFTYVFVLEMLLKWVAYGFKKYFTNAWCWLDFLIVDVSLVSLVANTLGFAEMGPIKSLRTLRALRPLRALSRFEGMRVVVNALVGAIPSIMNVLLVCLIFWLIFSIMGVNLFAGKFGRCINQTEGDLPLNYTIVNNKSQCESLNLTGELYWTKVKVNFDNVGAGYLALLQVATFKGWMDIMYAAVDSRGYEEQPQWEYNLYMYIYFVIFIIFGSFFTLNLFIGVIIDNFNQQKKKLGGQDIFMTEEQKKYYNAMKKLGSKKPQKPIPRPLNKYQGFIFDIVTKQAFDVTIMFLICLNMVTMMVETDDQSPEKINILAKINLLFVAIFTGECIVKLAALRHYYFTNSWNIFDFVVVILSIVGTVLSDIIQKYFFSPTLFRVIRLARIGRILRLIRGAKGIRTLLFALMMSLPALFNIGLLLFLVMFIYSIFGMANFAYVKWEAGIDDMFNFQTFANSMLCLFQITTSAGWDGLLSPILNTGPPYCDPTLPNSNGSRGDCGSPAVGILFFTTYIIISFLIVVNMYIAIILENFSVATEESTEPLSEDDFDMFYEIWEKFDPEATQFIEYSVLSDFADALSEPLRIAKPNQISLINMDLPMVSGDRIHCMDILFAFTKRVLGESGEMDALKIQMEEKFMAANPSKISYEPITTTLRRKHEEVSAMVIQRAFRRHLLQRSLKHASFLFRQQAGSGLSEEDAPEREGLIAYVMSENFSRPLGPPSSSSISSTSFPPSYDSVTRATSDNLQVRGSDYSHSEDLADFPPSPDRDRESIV
hERG, sequence (Q12809 whole entry): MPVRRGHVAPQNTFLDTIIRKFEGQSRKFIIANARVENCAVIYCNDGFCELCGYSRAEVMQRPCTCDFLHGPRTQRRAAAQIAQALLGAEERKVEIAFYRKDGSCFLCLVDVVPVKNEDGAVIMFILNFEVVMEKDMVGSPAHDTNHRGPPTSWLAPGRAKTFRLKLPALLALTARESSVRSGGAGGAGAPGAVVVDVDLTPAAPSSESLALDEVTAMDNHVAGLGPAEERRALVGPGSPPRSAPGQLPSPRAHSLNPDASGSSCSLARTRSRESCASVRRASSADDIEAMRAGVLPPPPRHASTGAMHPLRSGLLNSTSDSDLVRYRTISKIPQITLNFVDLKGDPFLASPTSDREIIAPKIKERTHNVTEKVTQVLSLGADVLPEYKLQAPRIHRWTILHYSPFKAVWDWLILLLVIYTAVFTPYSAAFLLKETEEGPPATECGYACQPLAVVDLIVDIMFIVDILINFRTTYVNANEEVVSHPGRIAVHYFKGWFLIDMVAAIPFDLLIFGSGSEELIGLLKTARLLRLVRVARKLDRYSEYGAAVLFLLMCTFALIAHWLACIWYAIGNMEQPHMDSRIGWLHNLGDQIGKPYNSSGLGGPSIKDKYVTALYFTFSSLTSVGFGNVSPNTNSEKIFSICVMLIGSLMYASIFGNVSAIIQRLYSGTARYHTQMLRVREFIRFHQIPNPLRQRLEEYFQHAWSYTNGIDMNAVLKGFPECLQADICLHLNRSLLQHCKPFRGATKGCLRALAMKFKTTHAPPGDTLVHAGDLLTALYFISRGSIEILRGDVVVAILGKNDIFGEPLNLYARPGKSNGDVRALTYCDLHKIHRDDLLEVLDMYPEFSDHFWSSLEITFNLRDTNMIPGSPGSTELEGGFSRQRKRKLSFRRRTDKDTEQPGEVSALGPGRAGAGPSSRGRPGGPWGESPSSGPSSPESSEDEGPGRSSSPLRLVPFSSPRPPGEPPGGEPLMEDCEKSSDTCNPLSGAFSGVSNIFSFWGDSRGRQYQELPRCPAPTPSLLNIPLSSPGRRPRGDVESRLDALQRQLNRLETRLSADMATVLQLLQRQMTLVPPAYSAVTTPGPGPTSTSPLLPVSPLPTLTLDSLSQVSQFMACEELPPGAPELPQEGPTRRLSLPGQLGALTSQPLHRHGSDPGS

Regarding `Cc1nc(-n2cc(Cl)c(OC3CCN(c4ncc(Cl)cn4)CC3)cc2=O)ccc1N1CC[C@H](O)C1=O` [Example 3, (S)-5-chloro-4-((1-(5-chloropyrimidin-2-yl)piperidin-4-yl)oxy)-5′-(3-hydroxy-2-oxopyrrolidin-1-yl)-6′-methyl-2H-[1,2′-bipyridin]-2-one], in the series on male C57BL/6J mice, the “Glucose Lowering” value is listed as −26% and the “Minimally efficacious Dose” value worked out at 0.03 mg/kg. For the same compound, the solubility in the series “Aqueous solubility assay” stood at 1 µg/mL (≈ 1.88 µM). The same compound yielded an inhibition at 30 µM against hERG of 33%. On sodium channel SCN5A (1 Hz), the inhibition at 10 µM was 14%. Moreover, the inhibition at 10 µM at sodium channel SCN5A (4 Hz) worked out at 23%.
Regarding `Cc1nc(-n2cc(Cl)c(OC3CCN(c4ncc(Cl)cn4)CC3)cc2=O)ccc1N1CC[C@@H](O)C1=O` [Example 4, (R)-5-chloro-4-((1-(5-chloropyrimidin-2-yl)piperidin-4-yl)oxy)-5′-(3-hydroxy-2-oxopyrrolidin-1-yl)-6′-methyl-2H-[1,2′-bipyridin]-2-one], in the series with male C57BL/6J mice, the “Glucose Lowering” value is on record as −39%. Also, the “Minimally efficacious Dose” value in the series with male C57BL/6J mice worked out at 0.03 mg/kg. This compound also gave a solubility in “Aqueous solubility assay” of 2 µg/mL (≈ 3.76 µM). At hERG, this compound returned an inhibition at 30 µM of 40%. The inhibition at 10 µM on sodium channel SCN5A (human, 1 Hz) worked out at 6%; on sodium channel SCN5A (human, 4 Hz), 7%; at sodium channel SCN5A (1 Hz) it was 6%; on sodium channel SCN5A (4 Hz), 7%.
